Bounds are passed on as bounds.

Drawing on patent publication US7323469B2, “7H-pyrrolo[2,3-d]pyrimidine derivatives” (Novartis AG, priority 2001, dated 2008), this text covers melting point for 33 compounds.

On to `C[C@@H](Nc1ncnc2[nH]c(-c3ccc(CNC(C)(C)C)cc3)cc12)c1ccccc1` [Example 16d, {6-[4-(tert-Butylamino-methyl)-phenyl]-7H-pyrrolo[2,3-d]pyrimidin-4-yl}-((R)-1-phenyl-ethyl)-amine], for which the melting point (as a rule, the temperature of the solid-liquid transition) is greater than 300 °C. The figure for `CC(C)NCc1ccc(-c2cc3c(N[C@H](C)c4ccccc4)ncnc3[nH]2)cc1` [Example 16e, {6-[4-(isopropylamino-methyl)-phenyl]-7H-pyrrolo[2,3-d]pyrimidin-4-yl}-((R)-1-phenyl-ethyl)-amine] is 266 to 268 °C; for `Clc1cccc(CNc2ncnc3[nH]c(-c4ccc(CN5CCCCC5)cc4)cc23)c1` [Example 85, (3-Chloro-benzyl)-[6-(4-piperidin-1-ylmethyl-phenyl)-7H-pyrrolo[2,3-d]pyrimidin-4-yl]-amine] it is 234 to 235 °C.

With `C[C@@H](Nc1ncnc2[nH]c(-c3cccc(CN4CCCCC4)c3)cc12)c1ccccc1` [Example 30, ((R)-1-Phenyl-ethyl)-[6-(3-piperidin-1-ylmethyl-phenyl)-7H-pyrrolo[2,3-d]pyrimidin-4-yl]-amine], the melting point fell in the range of 108 to 110 °C. `C[C@@H](Nc1ncnc2[nH]c(-c3cccc(CN4CCOCC4)c3)cc12)c1ccccc1` [Example 31, [6-(3-Morpholin-4-ylmethyl-phenyl)-7H-pyrrolo[2,3-d]pyrimidin-4-yl]-((R)-1-phenyl-ethyl)-amine] showed a melting point of 242 to 243 °C. With `CN(C)CC(=O)NCc1ccc(-c2cc3c(Nc4ccc(OCc5ccccc5)cc4)ncnc3[nH]2)cc1` [Example 51, N-{4-[4-(4-Benzyloxy-phenylamino)-7H-pyrrolo[2,3-d]pyrimidin-6-yl]-benzyl}-2-dimethylamino-acetamide], the melting point is 233 to 235 °C. To `CCN1CCN(Cc2ccc(-c3cc4c(NCc5cccc(C)c5)ncnc4[nH]3)cc2)CC1` [Example 107j, {6-[4-(4-Ethyl-piperazin-1-ylmethyl)-phenyl]-7H-pyrrolo[2,3-d]pyrimidin-4-yl}-(3-methyl-benzyl)-amine] belongs 250 to 252 °C. Consider `CCN1CCN(Cc2ccc(-c3cc4c(NCc5cc[nH]c(=O)c5)ncnc4[nH]3)cc2)CC1` [Example 129, 4-({6-[4-(4-Ethyl-piperazin-1-ylmethyl)-phenyl]-7H-pyrrolo[2,3-d]pyrimidin-4-ylamino}-methyl)-1H-pyridin-2-one], for which the melting point was in the range of 291 to 292 °C. To `CN1CCN(Cc2ccc(-c3cc4c(NCc5cc(Cl)ccc5Cl)ncnc4[nH]3)cc2)CC1` [Example 102, (2,5-Dichloro-benzyl)-{6-[4-(4-methyl-piperazin-1-ylmethyl)-phenyl]-7H-pyrrolo[2,3-d]pyrimidin-4-yl)-amine] belongs 244 to 246 °C.

`C[C@@H](Nc1ncnc2[nH]c(-c3ccc(CNC(=O)CN4CCCC4)cc3)cc12)c1ccccc1` [Example 41, N-{4-[4-((R)-1-Phenyl-ethylamino)-7H-pyrrolo[2,3-d]pyrimidin-6-yl]-benzyl}-2-pyrrolidin-1-yl-acetamide] returned a melting point of 196 to 198 °C.

`CC1CN(Cc2ccc(-c3cc4c(Nc5ccc(OCc6ccccc6)cc5)ncnc4[nH]3)cc2)CC(C)N1` (stereo not drawn) [Example 24, (4-Benzyloxy-phenyl)-{6-[4-(3,5-dimethyl-piperazin-1-ylmethyl)-phenyl]-7H-pyrrolo[2,3-d]pyrimidin-4-yl}-amine] had a melting point of 269 to 271 °C.

Take `C[C@@H](Nc1ncnc2[nH]c(-c3ccc(CNC4CCOCC4)cc3)cc12)c1ccccc1` [Example 16b, ((R)-1-Phenyl-ethyl)-(6-{4-[(tetrahydro-pyran-4-ylamino)-methyl]-phenyl}-7H-pyrrolo[2,3-d]pyrimidin-4-yl)-amine]: the melting point fell in the range of 253 to 255 °C. The compound `CCN1CCN(Cc2ccc(-c3cc4c(Nc5ccc(OCc6ccccc6)cc5)ncnc4[nH]3)cc2)CC1` [Example 22, (4-Benzyloxy-phenyl)-{6-[4-(4-ethyl-piperazin-1-ylmethyl)-phenyl]-7H-pyrrolo[2,3-d]pyrimidin-4-yl}-amine] displayed a melting point of 256 to 258 °C. The figure for `c1ccc(COc2ccc(Nc3ncnc4[nH]c(-c5ccc(CN6CCCC6)cc5)cc34)cc2)cc1` [Example 23, (4-Benzyloxy-phenyl)-[6-(4-pyrrolidin-1-ylmethyl-phenyl)-7H-pyrrolo[2,3-d]pyrimidin-4-yl]-amine] is 265 to 267 °C.

The compound `COc1cccc(CNc2ncnc3[nH]c(-c4ccc(CN5CCCCC5)cc4)cc23)c1` [Example 107, (3-Methoxy-benzyl)-[6-(4-piperidin-1-ylmethyl-phenyl)-7H-pyrrolo[2,3-d]pyrimidin-4-yl]-amine] had a melting point of 227 to 229 °C. The figure for `CCN(CC)CCNCc1ccc(-c2cc3c(N[C@H](C)c4ccccc4)ncnc3[nH]2)cc1` [Example 16c, N,N-Diethyl-N′-{4-[4-((R)-1-phenyl-ethyl-amino)-7H-pyrrolo[2,3-d]pyrimidin-6-yl]-benzyl}-ethane-1,2-diamine] is 145 to 150 °C; for `CCN1CCN(Cc2ccc(-c3cc4c(NCc5cccc(OC)c5)ncnc4[nH]3)cc2)CC1` [Example 107c, {6-[4-(4-Ethyl-piperazin-1-ylmethyl)-phenyl]-7H-pyrrolo[2,3-d]pyrimidin-4-yl}-(3-methoxy-benzyl)-amine] it is 231 to 233 °C; for `C[C@@H](Nc1ncnc2[nH]c(-c3ccc(CNC(=O)CN4CCOCC4)cc3)cc12)c1ccccc1` [Example 42, 2-Morpholin-4-yl-N-{4-[4-((R)-1-phenyl-ethyl-amino)-7H-pyrrolo[2,3-d]pyrimidin-6-yl]-benzyl}-acetamide] it is 199 to 202 °C. For `CCN(CC)CCC(=O)NCc1ccc(-c2cc3c(N[C@H](C)c4ccccc4)ncnc3[nH]2)cc1` [Example 55, 3-Diethylamino-N-{4-[4-((R)-1-phenyl-ethyl-amino)-7H-pyrrolo[2,3-d]pyrimidin-6-yl]-benzyl}-propionamide], the melting point fell in the range of 175 to 177 °C.

In turn, `CN(C)Cc1ccc(-c2cc3c(NCc4cc(Cl)ccc4Cl)ncnc3[nH]2)cc1` [Example 98, (2,5-Dichloro-benzyl)-[6-(4-dimethylaminomethyl-phenyl)-7H-pyrrolo[2,3-d]pyrimidin-4-yl]-amine] yielded a melting point of 254 to 257 °C. To `C[C@@H](Nc1ncnc2[nH]c(-c3ccc(CN(C)C)cc3)cc12)c1ccc(Cl)cc1` [Example 76, [(R)-1-(4-Chloro-phenyl)-ethyl]-[6-(4-dimethylaminomethyl-phenyl)-7H-pyrrolo[2,3-d]pyrimidin-4-yl]-amine] belongs 273 to 274 °C. To `C[C@@H](Nc1ncnc2[nH]c(-c3ccc(CNC(=O)CN4CCCCC4)cc3)cc12)c1ccccc1` [Example 40, N-{4-[4-((R)-1-Phenyl-ethylamino)-7H-pyrrolo[2,3-d]pyrimidin-6-yl]-benzyl}-2-piperidin-1-yl-acetamide] belongs 194 to 196 °C.

`C[C@@H](Nc1ncnc2[nH]c(-c3ccc(CNC(=O)CN(C)C)cc3)cc12)c1ccccc1` [Example 44, 2-Dimethylamino-N-{4-[4-((R)-1-phenyl-ethyl-amino)-7H-pyrrolo[2,3-d]pyrimidin-6-yl]-benzyl}-acetamide]: the melting point lay within 263 to 266 °C. In turn, `CN(C)Cc1ccc(-c2cc3c(Nc4ccc(OCc5ccccc5)cc4)ncnc3[nH]2)cc1` [Example 17, (4-Benzyloxy-phenyl)-[6-(4-dimethylaminomethyl-phenyl)-7H-pyrrolo[2,3-d]pyrimidin-4-yl]-amine] displayed a melting point of 272 to 274 °C. The figure for `Cl.Clc1cccc(Nc2ncnc3[nH]c(-c4ccc(CN5CCOCC5)cc4)cc23)c1` is 278 to 280 °C.

Consider `CN1CCN(CC(=O)NCc2ccc(-c3cc4c(Nc5ccc(F)c(Cl)c5)ncnc4[nH]3)cc2)CC1` [Example 50, N-{4-[4-(3-Chloro-4-fluoro-phenylamino)-7H-pyrrolo[2,3-d]pyrimidin-6-yl]-benzyl}-2-(4-methyl-piperazin-1-yl)-acetamide], for which the melting point lay in the range of 246 to 249 °C. To `Clc1ccccc1CNc1ncnc2[nH]c(-c3ccc(CN4CCCC4)cc3)cc12` [Example 95, (2-Chloro-benzyl)-[6-(4-pyrrolidin-1-ylmethyl-phenyl)-7H-pyrrolo[2,3-d]pyrimidin-4-yl]-amine] belongs 264 to 265 °C; to `CN1CCN(CC(=O)NCc2cccc(-c3cc4c(Nc5ccc(F)c(Cl)c5)ncnc4[nH]3)c2)CC1` [Example 65, N-{3-[4-(3-Chloro-4-fluoro-phenylamino)-7H-pyrrolo[2,3-d]pyrimidin-6-yl]-benzyl}-2-(4-methyl-piperazin-1-yl)-acetamide], 214 °C.

`COc1cc(CNc2ncnc3[nH]c(-c4ccc(CN(C)C)cc4)cc23)ccn1` [Example 124, (2-Methoxy-pyridin-4-ylmethyl)-{6-[4-(dimethylamino-methyl)-phenyl]-7H-pyrrolo[2,3-d]pyrimidin-4-yl}-amine] came in with a melting point of 210 to 211 °C. The figure for `CCN1CCN(Cc2ccc(-c3cc4c(NCc5cccc(Cl)c5)ncnc4[nH]3)cc2)CC1` [Example 83, (3-Chloro-benzyl)-{6-[4-(4-ethyl-piperazin-1-ylmethyl)-phenyl]-7H-pyrrolo[2,3-d]pyrimidin-4-yl}-amine] is 241 to 243 °C. The figure for `C[C@@H](Nc1ncnc2[nH]c(-c3cccc(CN4CCCC4)c3)cc12)c1ccccc1` [Example 28, ((R)-1-Phenyl-ethyl)-[6-(3-pyrrolidin-1-ylmethyl-phenyl)-7H-pyrrolo[2,3-d]pyrimidin-4-yl]-amine] is 90 to 92 °C; for `O=C(CN1CCCCC1)NCc1ccc(-c2cc3c(Nc4ccc(OCc5ccccc5)cc4)ncnc3[nH]2)cc1` [Example 53, N-{4-[4-(4-Benzyloxy-phenylamino)-7H-pyrrolo[2,3-d]pyrimidin-6-yl]-benzyl}-2-piperidin-1-yl-acetamide] it is 246 to 248 °C. As for `CC(C)NCc1ccc(-c2cc3c(Nc4ccc(F)c(Cl)c4)ncnc3[nH]2)cc1` [Example 8d, (3-Chloro-4-fluoro-phenyl)-{6-[4-(iso-propylamino-methyl)-phenyl]-7H-pyrrolo[2,3-d]pyrimidin-4-yl}-amine], the melting point lay in the range of 282 to 284 °C.
